Measurements published in patent US20210139435A1, “PROSTAGLANDIN ANALOGS AND USES THEREOF” (Lifex Biolabs, Inc., priority 2019, published 2021).

Assays:
Nurr1 = Nurr1 (Homo sapiens, UniProt P43354); assay: Activation of Nurr1 / Nurr1's transcription function by prostaglandins (stated without method); assay type: cell-based
[1] = biological target: ligand-binding domain (LBD) of Nurr1 (Homo sapiens, UniProt P43354); assay: Binding of prostaglandins to Nurr1-LBD (NMR titration)
Description: Cyclopentenone prostaglandin's A1/A2 are dehydrated metabolites of their precursors, the cyclopentanone prostaglandins E1/E2. In PGE1/E2, a hydroxyl group is attached to the C11 atom, which is responsible for the covalent attachment between PGA1 and Nurr1. This is evident from the electron density observed between the PGA1/A2's C11 atom (Rajan, S. et al. Nat Chem Biol 16, 876-886 (2020); U.S. patent application Ser. No. 16/334,550) and Nurr1's Cys566 sulphur, a characteristic feature of PGA1/A2 binding. […] Based on these one could conclude that both PGA1 and PGE1 can be used to design analogs, preferably using PGE1 which is better suited for chemic synthesis and modifications as it lacks the reactive C11 site, concealed by the hydroxyl group (Rajan, S. et al. Nat Chem Biol 16, 876-886 (2020)). […] One such is the misoprostol, which enhanced Nurr1's transcription function. Thus, we chose PGE1 and Misoprostol as the candidate molecules to make modification.

[2] = system: 6-OHDA Parkinson's disease model; assay: 6-OHDA Parkinson's disease model, apomorphine induced rotational behavior, intranasal administration; assay type: in vivo, C57BL/6 mice; conditions: apomorphine (0.5 mg/kg) induced rotation; daily intranasal 0.2 mg/ml; 6-OHDA mice
Procedure: Mice were randomly divided into […]: Control (n=4); 6-OHDA (6-hydroxydopamine)+(n=7), 6-OHDA+PGE1 (n=8); 6-OHDA+BSC15 (the compound of the present invention) (n=8); 6-OHDA+BSC19 (the compound of the present invention) (n=7).
Week 9-10 C57BL/6 mice were intranasally administered daily with 0.2 mg/ml of compounds to be tested for 3 days before 6-OHDA injection. Stereotaxic surgery was performed by injecting 7.5 μg of 6-OHDA into the left striatum (AP: +0.5 mm, ML: −2.0 mm, VD: −3.5 mm) of the mouse. Compounds to be tested, i.e., PGE1, BSC15 and BSC19 were prepared by double emulsion solvent evaporation of 1:4 molar ratio with 2-hydroxypropyl-β-cyclodextrin. After surgical recovery, the daily intranasal administration continued with a weekly assessment of apomorphine (0.5 mg/kg) induced rotational behavior. Animal care and handling were performed according to the protocol approved by Nanyang Technological University's Institutional Animal Care and Use Committee.

Chain of ligand-binding domain (LBD) of Nurr1 (P43354 360-595 limits assumed): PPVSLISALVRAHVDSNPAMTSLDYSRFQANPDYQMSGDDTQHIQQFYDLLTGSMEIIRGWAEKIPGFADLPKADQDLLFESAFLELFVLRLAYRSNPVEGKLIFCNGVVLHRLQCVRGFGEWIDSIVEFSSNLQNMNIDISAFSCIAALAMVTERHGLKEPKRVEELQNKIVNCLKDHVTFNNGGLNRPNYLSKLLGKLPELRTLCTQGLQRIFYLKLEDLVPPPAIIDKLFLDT
Chain of Nurr1 (P43354 whole entry, species assumed, the tested form may be a part): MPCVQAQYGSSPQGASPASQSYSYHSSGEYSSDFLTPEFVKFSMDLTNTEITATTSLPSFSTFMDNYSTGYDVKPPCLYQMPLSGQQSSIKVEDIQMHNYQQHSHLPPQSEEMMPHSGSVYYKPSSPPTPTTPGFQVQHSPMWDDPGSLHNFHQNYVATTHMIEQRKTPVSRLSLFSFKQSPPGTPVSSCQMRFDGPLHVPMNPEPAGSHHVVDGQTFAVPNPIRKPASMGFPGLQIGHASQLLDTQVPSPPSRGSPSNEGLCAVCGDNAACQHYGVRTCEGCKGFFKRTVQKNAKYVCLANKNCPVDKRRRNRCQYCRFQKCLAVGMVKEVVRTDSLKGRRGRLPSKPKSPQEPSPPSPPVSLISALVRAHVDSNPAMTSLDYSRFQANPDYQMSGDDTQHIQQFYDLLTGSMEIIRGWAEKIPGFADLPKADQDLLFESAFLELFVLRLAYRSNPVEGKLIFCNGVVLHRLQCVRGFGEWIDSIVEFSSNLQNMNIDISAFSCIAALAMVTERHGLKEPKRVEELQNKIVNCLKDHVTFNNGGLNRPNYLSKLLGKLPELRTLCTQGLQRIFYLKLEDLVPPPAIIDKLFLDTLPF

Row | activation of Nurr1 (Nurr1) | direct binding to the ligand-binding domain (LBD) of Nurr1 [1] | SMILES | binding site on Nurr1-LBD by NMR titration [1] | rotation number [2]
1 | activate | directly bind | CCCCC[C@H](O)/C=C/[C@H]1C=CC(=O)[C@@H]1CCCCCCC(=O)O [PGA1] | interact at same binding site on Nurr1-LBD | –
2 | activate | directly bind | CCCCC[C@H](O)/C=C/[C@H]1C=CC(=O)[C@@H]1C/C=C\CCCC(=O)O [PGA2] | – | –
3 | activate | directly bind | CCCCC[C@H](O)/C=C/[C@H]1[C@H](O)CC(=O)[C@@H]1CCCCCCC(=O)O [PGE1, Prostaglandin E1] | interact at same binding site on Nurr1-LBD | significant reduction
4 | activate | directly bind | CCCCC[C@H](O)/C=C/[C@H]1[C@H](O)CC(=O)[C@@H]1C/C=C\CCCC(=O)O [PGE2, Prostaglandin E2] | – | –
